Experimental data taken from patent US12358892B2, “Metalloenzyme inhibitors for treating cancers, Alzheimer's disease, hemochromatosis, and other disorders” (Miralogx LLC, priority 2020, dated 2025).
Entries after “also recorded” stand apart in the source; their conditions may differ.

Tests used:
[1] = system: 12 human primary cell-based systems; assay: BioMAP Diversity PLUS panel, protein biomarker readouts and cytotoxicity
From the text: This example describes testing the compound prepared in Example 1 in the BioMAP Diversity PLUS (Eurofins Discovery, Burlingame, California) panel of 12 human primary cell-based systems designed to model different aspects of the human body in an in vitro format. The 12 systems in the Diversity PLUS panel allow test agent characterization in an unbiased way across a broad set of systems modeling various human disease states. BioMAP systems are constructed with one or more primary cell types from healthy human donors, with stimuli (such as cytokines or growth factors) added to capture relevant signaling networks that naturally occur in human tissue or pathological conditions. Vascular biology is modeled in both a Th1 (3C system) and a Th2 (4H system) inflammatory environment, as well as in a Th1 inflammatory state specific to arterial smooth muscle cells (CASM3C system). Additional systems recapitulate aspects of the systemic immune response including monocyte-driven Th1 inflammation (LPS system) or T cell stimulation (SAg system), chronic Th1 inflammation driven by macrophage activation (lMphg system) and the T cell-dependent activation of B cells that occurs in germinal centers (BT system). The BE3C system (Th1) and the BF4T system (Th2) represent airway inflammation of the lung, while the MyoF system models myofibroblast-lung tissue remodeling. Lastly, skin biology is addressed in the KF3CT system modeling Th1 cutaneous inflammation and the HDF3CGF system modeling wound healing.
The X-axis lists the quantitative protein-based biomarker readouts measured in each system. The Y-axis represents a log-transformed ratio of the biomarker readouts for the drug-treated sample (n=1) over vehicle controls (n≥6). The grey region around the Y-axis represents the 95% significance envelope generated from historical vehicle controls. Biomarker activities are annotated when two or more consecutive concentrations change in the same direction relative to vehicle controls, are outside of the significance envelope, and have at least one concentration with an effect size >20% (|log 10 ratio|>0.1). Biomarker key activities are described as modulated if these activities increase in some systems, but decrease in others. Cytotoxicity is indicated on the profile plot by a thin black arrow above the X-axis, and antiproliferative effects are indicated by a thick grey arrow. Cytotoxicity and antiproliferative arrows only require one concentration to meet the indicated threshold for profile annotation. As summarized in Table 2 below, the compound was active with 35 annotated readouts. Specifically, the compound impacted inflammation-related activities (decreased Eotaxin 3, VCAM-1, MCP-1, SAA, sTNFα, MIP-1α; increased IL-1α, IL-6; modulated IL-8), immunomodulatory activities (decreased CD40, sIL-1β, sIgG, M-CSF, sIL-17A, sIL-6, sIL-17F, sIL-2), tissue remodeling activities (decreased PAI-1, uPAR, αSMA, Keratin 8/18; increased collagen I, MMP-1), and hemostasis-related activities (increased TF).
BioMAP® panels consist of human primary cell-based systems designed to model different aspects of the human body in an in vitro format. BioMAP® systems are constructed with one or more primary cell types from healthy human donors, with stimuli (such as cytokines or growth factors) added to capture relevant signaling networks that naturally occur in human tissue or pathological conditions. Vascular biology is modeled in both a Th1 (3C system) and a Th2 (4H system) inflammatory environment, as well as in a Th1 inflammatory state specific to arterial smooth muscle cells (CASM3C system). Additional systems recapitulate aspects of the systemic immune response including monocyte-driven Th1 inflammation (LPS system) or T cell stimulation (SAg system), chronic Th1 inflammation driven by macrophage activation (Mphg system) and the T cell-dependent activation of B cells that occurs in germinal centers (BT system). […]

[2] = system: coronary artery smooth muscle cells; assay: BioMAP proliferation readout, coronary artery smooth muscle cells; format: cell-based, human; details: 670 μM, 220 μM, 74 μM; concentrations not associated with cytotoxicity
From the text: (§1) The X-axis lists the quantitative protein-based biomarker readouts measured in each system. The Y-axis represents a log-transformed ratio of the biomarker readouts for the drug-treated sample (n=1) over vehicle controls (n≥6). The grey region around the Y-axis represents the 95% significance envelope generated from historical vehicle controls. Biomarker activities are annotated when two or more consecutive concentrations change in the same direction relative to vehicle controls, are outside of the significance envelope, and have at least one concentration with an effect size >20% (|log 10 ratio|>0.1). Biomarker key activities are described as modulated if these activities increase in some systems, but decrease in others. […] As summarized in Table 2 below, the compound was active with 35 annotated readouts. […]
(§2) Human primary cells in BioMAP® systems are used at early passage (passage 4 or earlier) to minimize adaptation to cell culture conditions and preserve physiological signaling responses. […] Test agents prepared in either DMSO (small molecules; final concentration ≤0.1%) or PBS (biologics) are added at the indicated concentrations 1-hr before stimulation, and remain in culture for 24-hrs or as otherwise indicated (48-hrs, MyoF system; 72-hrs, BT system (soluble readouts); 168-hrs, BT system (secreted IgG)). […]

fibroblasts = assay: BioMAP proliferation readout, fibroblasts; format: cell-based, human; details: 670 μM; concentrations not associated with cytotoxicity
From the text: as §1, §2

B cells = assay: BioMAP proliferation readout, B cells; format: cell-based, human; details: 670 μM, 220 μM, 74 μM; concentrations not associated with cytotoxicity
From the text: as §1, §2

T cells = assay: BioMAP proliferation readout, T cells; format: cell-based, human; details: 670 μM, 220 μM; concentrations not associated with cytotoxicity
From the text: as §1, §2

[3] = system: human primary endothelial cells; assay: BioMAP proliferation readout, endothelial cells; format: cell-based; details: 670 μM, 220 μM, 74 μM; concentrations not associated with cytotoxicity
From the text: as §1, §2

[4] = Inflammation-related activities
[5] = lower three concentrations tested, immunomodulatory
[6] = lower three concentrations tested, inflammation-related
[7] = lower three concentrations tested, tissue remodeling

SMILES: c1ncc(C2=NCCC2)cc1C1=NCCC1 [Example 1]
- annotated readouts ([1]; Diversity PLUS Panel profile): 35
- Decreased Activity: M-CSF ([1]; Immunomodulatory activities): decreased; also recorded: M-CSF
- Decreased Activity: sIL-6 ([1]; Immunomodulatory activities): decreased; also recorded: inhibited; also recorded: sIL-6
- Decreased Activity: sIL-10 (Table 2) / sIL-1β ([1]; Immunomodulatory activities): decreased
- Decreased Activity: sIL-17F ([1]; Immunomodulatory activities): decreased; also recorded: SIL-17F
- Decreased Activity: sIgG ([1]; Immunomodulatory activities): decreased and sigG
- Decreased activity: CD40 ([1]; Immunomodulatory activities): decreased and CD40
- Decreased activity: sIL-2 ([1]; Immunomodulatory activities): decreased
- Decreased activity: sIL-17A ([1]; Immunomodulatory activities): decreased; also recorded: SIL-17A
- Decreased Activity: Eotaxin 3 [1, 4]: decreased and Eot3
- Decreased Activity: MIP-1α [1, 4]: decreased
- Decreased Activity: SAA [1, 4]: decreased and SAA
- Decreased Activity: sTNFα [1, 4]: decreased; also recorded: inhibited; also recorded: sTNFα
- Decreased activity: MCP-1 [1, 4]: decreased; also recorded: MCP-1
- Decreased activity: VCAM-1 [1, 4]: decreased; also recorded: VCAM-1
- Increased Activity: IL-1α [1, 4]: increased and IL1a
- Increased Activity: IL-6 [1, 4]: increased and IL6
- Modulated Activity: IL-8 [1, 4]: modulated and IL8
- Decreased Activity: Keratin 8/18 ([1]; Tissue remodeling activities): decreased; also recorded: Ker8-18
- Decreased Activity: PAI-1 ([1]; Tissue remodeling activities): decreased; also recorded: PAI-1
- Decreased Activity: uPAR ([1]; Tissue remodeling activities): decreased and uPAR
- Decreased Activity: αSMA ([1]; Tissue remodeling activities): decreased and aSMA
- Increased Activity: MMP-1 ([1]; Tissue remodeling activities): increased; also recorded: MMP1,
- Increased Activity: collagen I ([1]; Tissue remodeling activities): increased; also recorded: Col-1
- annotated readouts ([1]; lower three concentrations tested): 23
- TF ([1]; lower three concentrations tested, hemostasis-related): increased
- sIL-1β [1, 5]: decreased
- sIL-2 [1, 5]: decreased
- sIL-6 [1, 5]: decreased
- sIL-17A [1, 5]: decreased
- sIL-17F [1, 5]: decreased
- sIgG [1, 5]: decreased
- Eotaxin 3 [1, 6]: decreased
- IL-1α [1, 6]: increased
- IL-6 [1, 6]: increased
- IL-8 [1, 6]: increased
- MCP-1 [1, 6]: decreased
- SAA [1, 6]: decreased
- VCAM-1 [1, 6]: decreased
- sTNFα [1, 6]: decreased
- MMP-1 [1, 7]: increased
- PAI-1 [1, 7]: decreased
- collagen I [1, 7]: increased
- antiproliferative effect on coronary artery smooth muscle cells [2]: antiproliferative
- antiproliferative effect on fibroblasts (fibroblasts): antiproliferative
- antiproliferative effect on B cells (B cells): antiproliferative
- antiproliferative effect on T cells (T cells): antiproliferative
- antiproliferative effect on human primary endothelial cells [3]: antiproliferative
